# In US12723063B2, “GIPR-agonist compounds” (Eli Lilly and Company, priority 2019, dated 2026):
# *1 amine or outer side, *2 acyl side, *3 side chain or, on linkers, in order; H or OH if unused. Where a SMILES comes first, the peptide text is derived from it. Side-chain parts run from the residue outwards. [ ]: non-standard residue; d: D form. The star is where a group is joined. C20 diacid = O=C(O)CCCCCCCCCCCCCCCCCCC(=O)*; αMePhe(2-F) = C[C@](N)(Cc1ccccc1F)C(=O)O; γGlu = O=C(O)[C@H](CCC(=O)[*:2])N[*:1]; 4Pal = N[C@@H](Cc1ccncc1)C(=O)O; αMeL = CC(C)C[C@](C)(N)C(=O)O; Orn = NCCC[C@H](N)C(=O)O; AEEA = NCCOCCOCC(=O)O; Aib = CC(C)(N)C(=O)O
# Experiments:
# [1] = Pharmacokinetics in male cynomolgus monkeys, single subcutaneous administration; assay type: in vivo, cynomolgus monkey; details: 50 nmol/kg single SC, mean n = 2
# Method: The pharmacokinetics of select Examples are evaluated following a single subcutaneous administration of 50 nmol/kg to male cynomolgus monkeys. Blood samples are collected over 504 hours and resulting individual plasma concentrations are used to calculate pharmacokinetic parameters. Peptide plasma (K3 EDTA) concentrations are determined using a qualified LC/MS method that measured the intact mass of the compound. Each peptide and an analog as an internal standard are extracted from 100% cynomolgus monkey plasma using a protein precipitation method. Instruments are combined for LC/MS detection.
# [2] = molecular target: T1, human GIPR (Homo sapiens, UniProt P48546); experiment: [125I]-GIP binding, SPA with WGA beads, 0.1% bacitracin; details: geometric mean, read-out: hGIPR Ki
# T1 construct: expressed in transfected cells; crude membranes
# T1 sequence (P48546 22-466): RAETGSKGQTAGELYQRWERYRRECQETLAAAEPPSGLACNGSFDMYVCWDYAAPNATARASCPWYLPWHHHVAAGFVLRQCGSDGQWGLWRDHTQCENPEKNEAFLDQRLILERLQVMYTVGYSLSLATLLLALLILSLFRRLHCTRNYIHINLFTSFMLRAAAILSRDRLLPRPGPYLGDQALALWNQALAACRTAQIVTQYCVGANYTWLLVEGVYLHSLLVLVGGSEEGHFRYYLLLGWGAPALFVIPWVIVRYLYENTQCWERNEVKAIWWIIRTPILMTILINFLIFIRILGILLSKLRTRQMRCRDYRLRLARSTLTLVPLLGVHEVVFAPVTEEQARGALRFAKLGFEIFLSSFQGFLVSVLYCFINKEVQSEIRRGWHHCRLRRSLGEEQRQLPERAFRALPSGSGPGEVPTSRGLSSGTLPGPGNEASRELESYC
# In short: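 Ki values are geometric means (SEM, n independent days), derived from four-parameter nonlinear regression of IC50. Membranes came from hGIPR-expressing CHO cells.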
# [3] = molecular target: T2, human GLP-1R (Homo sapiens, UniProt P43220); experiment: [125I]-GLP-1 binding, SPA with WGA beads, 0.1% bacitracin; details: geometric mean, read-out: hGLP1R Ki
# T2 construct: expressed in transfected cells; crude membranes
# In short: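 Binding buffer was 25 mM HEPES pH 7.4 with 2.5 mM CaCl2, 1 mM MgCl2, 0.1% (w/v) bacitracin, 0.003% Tween-20 and EDTA-free protease inhibitors. Four-parameter regression gave IC50, converted to Ki (geometric mean, SEM, n independent days).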
# T2 sequence (P43220 24-463): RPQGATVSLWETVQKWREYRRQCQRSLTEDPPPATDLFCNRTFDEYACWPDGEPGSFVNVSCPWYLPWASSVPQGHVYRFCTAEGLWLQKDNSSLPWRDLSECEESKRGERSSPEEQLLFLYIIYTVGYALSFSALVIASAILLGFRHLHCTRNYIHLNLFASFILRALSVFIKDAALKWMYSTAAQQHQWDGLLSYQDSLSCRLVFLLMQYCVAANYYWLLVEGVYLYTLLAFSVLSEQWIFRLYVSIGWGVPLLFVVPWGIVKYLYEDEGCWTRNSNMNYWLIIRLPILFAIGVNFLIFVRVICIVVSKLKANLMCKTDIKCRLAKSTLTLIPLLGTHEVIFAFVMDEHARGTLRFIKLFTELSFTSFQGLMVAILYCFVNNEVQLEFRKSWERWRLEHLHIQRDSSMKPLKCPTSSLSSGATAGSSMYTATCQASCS
SMILES,AUCInf/Dose [1] [hr*kg*nmol/L/nmol],Cmax/Dose [1] [kg*nmol/L/nmol],"CL/F ([1]; cynomolgus monkey, plasma) [mL/day/kg]","Tmax ([1]; cynomolgus monkey, plasma) [h]","half-life ([1]; cynomolgus monkey, plasma) [h]",Ki [2] [nM],Ki [3] [nM]
CC[C@H](C)[C@H](NC(=O)[C@H](Cc1ccccc1)NC(=O)[C@@H](NC(=O)CNC(=O)[C@H](CCC(=O)O)NC(=O)C(C)(C)NC(=O)[C@@H](N)Cc1ccc(O)cc1)[C@@H](C)O)C(=O)N[C@@H](CO)C(=O)N[C@@H](CC(=O)O)C(=O)N[C@@H](Cc1ccc(O)cc1)C(=O)N[C@@H](CO)C(=O)N[C@H](C(=O)N[C@@](C)(CC(C)C)C(=O)N[C@@H](CC(C)C)C(=O)N[C@@H](CC(=O)O)C(=O)N[C@@H](CCCN)C(=O)N[C@@H](CCCCNC(=O)COCCOCCNC(=O)COCCOCCNC(=O)CC[C@H](NC(=O)CCCCCCCCCCCCCCCCCCC(=O)O)C(=O)O)C(=O)N[C@@H](Cc1c[nH]cn1)C(=O)N[C@@H](CCC(N)=O)C(=O)NC(C)(C)C(=O)N[C@@H](CC(=O)O)C(=O)N[C@@H](Cc1ccccc1)C(=O)N[C@H](C(=O)N[C@@H](CCC(=O)O)C(=O)N[C@@H](Cc1ccncc1)C(=O)N[C@@H](CC(C)C)C(=O)N[C@@H](CC(C)C)C(=O)N[C@@H](CCC(=O)O)C(=O)N[C@@H](C)C(=O)NCC(=O)N1CCC[C@H]1C(=O)N[C@@H](CO)C(=O)N[C@@H](CO)C(=O)NCC(=O)N[C@@H](C)C(=O)N1CCC[C@H]1C(=O)N1CCC[C@H]1C(=O)N1CCC[C@H]1C(=O)N[C@@H](CO)C(N)=O)C(C)C)[C@@H](C)CC [Example 4],1387,8.71,17.3,6,124,0.062,423
CC[C@H](C)[C@H](NC(=O)[C@H](CCCCN)NC(=O)[C@H](CC(=O)O)NC(=O)[C@H](CC(C)C)NC(=O)[C@](C)(CC(C)C)NC(=O)[C@@H](NC(=O)[C@H](CO)NC(=O)[C@H](Cc1ccc(O)cc1)NC(=O)[C@H](CC(=O)O)NC(=O)[C@H](CO)NC(=O)[C@@H](NC(=O)[C@H](Cc1ccccc1)NC(=O)[C@@H](NC(=O)CNC(=O)[C@H](CCC(=O)O)NC(=O)C(C)(C)NC(=O)[C@@H](N)Cc1ccc(O)cc1)[C@@H](C)O)[C@@H](C)CC)[C@@H](C)CC)C(=O)N[C@@H](Cc1c[nH]cn1)C(=O)N[C@@H](CCC(N)=O)C(=O)NC(C)(C)C(=O)N[C@@H](CC(=O)O)C(=O)N[C@@H](Cc1ccccc1)C(=O)N[C@H](C(=O)N[C@@H](CCC(=O)O)C(=O)N[C@@H](Cc1ccc(O)cc1)C(=O)N[C@@H](CCCCNC(=O)COCCOCCNC(=O)COCCOCCNC(=O)CC[C@H](NC(=O)CCCCCCCCCCCCCCCCCCC(=O)O)C(=O)O)C(=O)N[C@@H](CC(C)C)C(=O)N[C@@H](CCC(=O)O)C(=O)N[C@@H](C)C(=O)NCC(=O)N1CCC[C@H]1C(=O)N[C@@H](CO)C(=O)N[C@@H](CO)C(=O)NCC(=O)N[C@@H](C)C(=O)N1CCC[C@H]1C(=O)N1CCC[C@H]1C(=O)N1CCC[C@H]1C(=O)N[C@@H](CO)C(N)=O)C(C)C [Example 117] (H-Y[Aib]EGTFISDYSI[αMeL]LDKIHQ[Aib]DFVEYK([AEEA-AEEA-γGlu-C20 diacid])LEAGPSSGAPPPS-NH2),,,,,,0.0722,591
CC[C@H](C)[C@H](NC(=O)[C@H](CO)NC(=O)[C@H](Cc1ccc(O)cc1)NC(=O)[C@H](CC(=O)O)NC(=O)[C@H](CO)NC(=O)[C@@H](NC(=O)[C@](C)(Cc1ccccc1F)NC(=O)[C@@H](NC(=O)CNC(=O)[C@H](CCC(=O)O)NC(=O)C(C)(C)NC(=O)[C@@H](N)Cc1ccc(O)cc1)[C@@H](C)O)[C@@H](C)CC)C(=O)N[C@@H](CC(C)C)C(=O)N[C@@H](CC(C)C)C(=O)N[C@@H](CC(=O)O)C(=O)N[C@@H](CCCCN)C(=O)N[C@H](C(=O)N[C@@H](Cc1c[nH]cn1)C(=O)N[C@@H](CCC(N)=O)C(=O)NC(C)(C)C(=O)N[C@@H](CC(=O)O)C(=O)N[C@@H](Cc1ccccc1)C(=O)N[C@H](C(=O)N[C@@H](CCC(=O)O)C(=O)N[C@@H](Cc1ccncc1)C(=O)N[C@@H](CCCCNC(=O)COCCOCCNC(=O)COCCOCCNC(=O)CC[C@H](NC(=O)CCCCCCCCCCCCCCCCCCC(=O)O)C(=O)O)C(=O)N[C@@H](CC(C)C)C(=O)N[C@@H](CCC(=O)O)C(=O)NCC(=O)NCC(=O)N1CCC[C@H]1C(=O)N[C@@H](CO)C(=O)N[C@@H](CO)C(=O)NCC(=O)N[C@@H](C)C(=O)N1CCC[C@H]1C(=O)N1CCC[C@H]1C(=O)N1CCC[C@H]1C(=O)N[C@@H](CO)C(N)=O)C(C)C)[C@@H](C)CC [Example 119] (H-Y[Aib]EGT[αMePhe(2-F)]ISDYSILLDKIHQ[Aib]DFVE[4Pal]K([AEEA-AEEA-γGlu-C20 diacid])LEGGPSSGAPPPS-NH2),,,,,,0.129,723
CC[C@H](C)[C@H](NC(=O)[C@H](CO)NC(=O)[C@H](Cc1ccc(O)cc1)NC(=O)[C@H](CC(=O)O)NC(=O)[C@H](CO)NC(=O)[C@@H](NC(=O)[C@](C)(Cc1ccccc1F)NC(=O)[C@@H](NC(=O)CNC(=O)[C@H](CCC(=O)O)NC(=O)C(C)(C)NC(=O)[C@@H](N)Cc1ccc(O)cc1)[C@@H](C)O)[C@@H](C)CC)C(=O)N[C@@H](CC(C)C)C(=O)N[C@@H](CC(C)C)C(=O)N[C@@H](CC(=O)O)C(=O)N[C@@H](CCCCN)C(=O)N[C@H](C(=O)N[C@@H](Cc1c[nH]cn1)C(=O)N[C@@H](CCC(N)=O)C(=O)NC(C)(C)C(=O)N[C@@H](CC(=O)O)C(=O)N[C@@H](Cc1ccccc1)C(=O)N[C@H](C(=O)N[C@@H](CCC(=O)O)C(=O)N[C@@H](Cc1ccncc1)C(=O)N[C@@H](CCCCNC(=O)COCCOCCNC(=O)COCCOCCNC(=O)CC[C@H](NC(=O)CCCCCCCCCCCCCCCCCCC(=O)O)C(=O)O)C(=O)N[C@@H](CC(C)C)C(=O)N[C@@H](CCC(=O)O)C(=O)N[C@@H](C)C(=O)NCC(=O)N1CCC[C@H]1C(=O)N[C@@H](CO)C(=O)N[C@@H](CO)C(=O)NCC(=O)N[C@@H](C)C(=O)N1CCC[C@H]1C(=O)N1CCC[C@H]1C(=O)N1CCC[C@H]1C(=O)N[C@@H](CO)C(N)=O)C(C)C)[C@@H](C)CC [Example 120] (H-Y[Aib]EGT[αMePhe(2-F)]ISDYSILLDKIHQ[Aib]DFVE[4Pal]K([AEEA-AEEA-γGlu-C20 diacid])LEAGPSSGAPPPS-NH2),,,,,,0.171,> 912
CC[C@H](C)[C@H](NC(=O)[C@H](CO)NC(=O)[C@H](Cc1ccc(O)cc1)NC(=O)[C@H](CC(=O)O)NC(=O)[C@H](CO)NC(=O)[C@@H](NC(=O)[C@](C)(Cc1ccccc1F)NC(=O)[C@@H](NC(=O)CNC(=O)[C@H](CCC(=O)O)NC(=O)C(C)(C)NC(=O)[C@@H](N)Cc1ccc(O)cc1)[C@@H](C)O)[C@@H](C)CC)C(=O)N[C@@H](CC(C)C)C(=O)N[C@@H](CC(C)C)C(=O)N[C@@H](CC(=O)O)C(=O)N[C@@H](CCCCN)C(=O)N[C@H](C(=O)N[C@@H](Cc1c[nH]cn1)C(=O)N[C@@H](CCC(N)=O)C(=O)NC(C)(C)C(=O)N[C@@H](CC(=O)O)C(=O)N[C@@H](Cc1ccccc1)C(=O)N[C@H](C(=O)N[C@@H](CCC(=O)O)C(=O)N[C@@H](Cc1ccncc1)C(=O)N[C@@H](CCCCNC(=O)COCCOCCNC(=O)COCCOCCNC(=O)CC[C@H](NC(=O)CCCCCCCCCCCCCCCCCCC(=O)O)C(=O)O)C(=O)N[C@@H](CC(C)C)C(=O)N[C@@H](CCC(=O)O)C(=O)N[C@@H](CCC(N)=O)C(=O)NCC(=O)N1CCC[C@H]1C(=O)N[C@@H](CO)C(=O)N[C@@H](CO)C(=O)NCC(=O)N[C@@H](C)C(=O)N1CCC[C@H]1C(=O)N1CCC[C@H]1C(=O)N1CCC[C@H]1C(=O)N[C@@H](CO)C(N)=O)C(C)C)[C@@H](C)CC [Example 121] (H-Y[Aib]EGT[αMePhe(2-F)]ISDYSILLDKIHQ[Aib]DFVE[4Pal]K([AEEA-AEEA-γGlu-C20 diacid])LEQGPSSGAPPPS-NH2),,,,,,0.103,> 912
CC[C@H](C)[C@H](NC(=O)[C@H](CCCN)NC(=O)[C@H](CC(=O)O)NC(=O)[C@H](CC(C)C)NC(=O)[C@](C)(CC(C)C)NC(=O)[C@@H](NC(=O)[C@H](CO)NC(=O)[C@H](Cc1ccc(O)cc1)NC(=O)[C@H](CC(=O)O)NC(=O)[C@H](CO)NC(=O)[C@@H](NC(=O)[C@H](Cc1ccccc1)NC(=O)[C@@H](NC(=O)CNC(=O)[C@H](CCC(=O)O)NC(=O)C(C)(C)NC(=O)[C@@H](N)Cc1ccc(O)cc1)[C@@H](C)O)[C@@H](C)CC)[C@@H](C)CC)C(=O)N[C@@H](Cc1c[nH]cn1)C(=O)N[C@@H](CCC(N)=O)C(=O)NC(C)(C)C(=O)N[C@@H](CCC(=O)O)C(=O)N[C@@H](Cc1ccccc1)C(=O)N[C@H](C(=O)N[C@@H](CCC(=O)O)C(=O)N[C@@H](Cc1ccncc1)C(=O)N[C@@H](CCCCNC(=O)COCCOCCNC(=O)COCCOCCNC(=O)CC[C@H](NC(=O)CCCCCCCCCCCCCCCCCCC(=O)O)C(=O)O)C(=O)N[C@@H](CC(C)C)C(=O)N[C@@H](CCC(=O)O)C(=O)N[C@@H](C)C(=O)NCC(=O)N1CCC[C@H]1C(=O)N[C@@H](CO)C(=O)N[C@@H](CO)C(=O)NCC(=O)N[C@@H](C)C(=O)N1CCC[C@H]1C(=O)N1CCC[C@H]1C(=O)N1CCC[C@H]1C(=O)N[C@@H](CO)C(N)=O)C(C)C [Example 122] (H-Y[Aib]EGTFISDYSI[αMeL]LD[Orn]IHQ[Aib]EFVE[4Pal]K([AEEA-AEEA-γGlu-C20 diacid])LEAGPSSGAPPPS-NH2),,,,,,0.0311,> 913
